Reference: the supplement of paper PMC10307832

How the values were obtained:
Assay in all cases: relative viability (nuclei count vs DMSO), 5 days (fraction); higher = more cells survive
IU1-47 + Palbociclib = compound: CC1=CC(=C(N1C2=CC=C(C=C2)Cl)C)C(=O)CN3CCCCC3 [IU1-47] + CC(=O)c1c(C)c2cnc(Nc3ccc(N4CCNCC4)cn3)nc2n(C2CCCC2)c1=O [Palbociclib] (partner 0.5 µM)
Outline: (§1)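 Relative viability divides the nuclei count in treated wells by that in vehicle wells. Lung cancer cell lines were seeded in 1536-well plates, dosed by pin tool the next day, and fixed and stained after 5 days in one step with final 0.05% Triton X-100, 1% formaldehyde and 1 ug/ml Hoechst. Dosing was a single drug or a fixed anchor-drug dose plus five library-drug doses (not always all listed) in √10 steps, and values are medians of duplicate plates imaged at 4×.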

FG-4592 + Palbociclib = compound: Cc1nc(C(=O)NCC(=O)O)c(O)c2ccc(Oc3ccccc3)cc12 [FG-4592] + CC(=O)c1c(C)c2cnc(Nc3ccc(N4CCNCC4)cn3)nc2n(C2CCCC2)c1=O [Palbociclib] (partner 0.5 µM)
Outline: as §1

FG-4592 + Pictilisib = compound: Cc1nc(C(=O)NCC(=O)O)c(O)c2ccc(Oc3ccccc3)cc12 [FG-4592] + CS(=O)(=O)N1CCN(Cc2cc3nc(-c4cccc5[nH]ncc45)nc(N4CCOCC4)c3s2)CC1 [Pictilisib] (partner 1 µM)
Outline: as §1

FG-4592 + Olaparib = compound: Cc1nc(C(=O)NCC(=O)O)c(O)c2ccc(Oc3ccccc3)cc12 [FG-4592] + O=C(c1cc(Cc2n[nH]c(=O)c3ccccc23)ccc1F)N1CCN(C(=O)C2CC2)CC1 [Olaparib] (partner 8 µM)
Outline: as §1

| Cell Line | relative viability (IU1-47 + Palbociclib; first compound 0.08 µM) | relative viability (IU1-47 + Palbociclib; first compound 0.253 µM) | relative viability (IU1-47 + Palbociclib; first compound 0.8 µM) | relative viability (IU1-47 + Palbociclib; first compound 2.53 µM) | relative viability (IU1-47 + Palbociclib; first compound 8 µM) | relative viability (FG-4592 + Palbociclib; first compound 0.08 µM) | relative viability (FG-4592 + Palbociclib; first compound 0.253 µM) | relative viability (FG-4592 + Palbociclib; first compound 0.8 µM) | relative viability (FG-4592 + Palbociclib; first compound 2.53 µM) | relative viability (FG-4592 + Palbociclib; first compound 8 µM) | relative viability (FG-4592 + Pictilisib; first compound 0.08 µM) | relative viability (FG-4592 + Pictilisib; first compound 0.253 µM) | relative viability (FG-4592 + Pictilisib; first compound 0.8 µM) | relative viability (FG-4592 + Pictilisib; first compound 2.53 µM) | relative viability (FG-4592 + Pictilisib; first compound 8 µM) | relative viability (FG-4592 + Olaparib; first compound 0.08 µM) | relative viability (FG-4592 + Olaparib; first compound 0.253 µM) | relative viability (FG-4592 + Olaparib; first compound 0.8 µM) | relative viability (FG-4592 + Olaparib; first compound 2.53 µM) | relative viability (FG-4592 + Olaparib; first compound 8 µM) |
| --- | --- | --- | --- | --- | --- | --- | --- | --- | --- | --- | --- | --- | --- | --- | --- | --- | --- | --- | --- | --- |
| 201T | 0.377 | 0.417 | 0.361 | 0.391 | 0.399 | 0.349 | 0.362 | 0.341 | 0.36 | 0.341 | 0.642 | 0.644 | 0.584 | 0.695 | 0.675 | 0.841 | 0.794 | 0.843 | 0.878 | 0.827 |
| A549 | – | – | – | – | – | – | – | – | – | – | 0.488 | 0.455 | 0.452 | 0.489 | 0.456 | 0.252 | 0.274 | – | 0.44 | 0.385 |
| A-427 | 0.488 | 0.521 | 0.536 | 0.556 | 0.499 | 0.502 | 0.489 | 0.562 | 0.553 | 0.591 | 0.674 | 0.739 | 0.503 | 0.661 | 0.742 | 0.687 | 0.731 | 0.718 | 0.689 | 0.705 |
| ABC-1 | 0.763 | 0.921 | 0.65 | – | 0.582 | 0.718 | 0.503 | – | 0.537 | 0.437 | 0.778 | – | 0.55 | 0.7 | 0.539 | 0.781 | 0.798 | – | 1.13 | 1.07 |
| BEN | 0.54 | 0.452 | 0.448 | 0.497 | 0.512 | 0.433 | 0.44 | 0.463 | 0.454 | 0.475 | 0.442 | 0.485 | 0.429 | 0.561 | 0.459 | 1.13 | 0.99 | 1.07 | 1.02 | 0.956 |
| CAL-12T | 0.402 | 0.306 | 0.413 | 0.508 | 0.324 | 0.554 | 0.339 | 0.386 | 0.336 | 0.442 | 0.516 | 0.494 | 0.221 | 0.555 | 0.523 | 0.63 | 0.67 | 0.727 | 0.764 | 0.687 |
| COR-L23 | 0.313 | 0.32 | 0.284 | 0.245 | 0.279 | 0.274 | 0.28 | 0.258 | 0.274 | 0.234 | 0.812 | 0.617 | 0.849 | 0.685 | 0.728 | 0.331 | 0.358 | 0.358 | 0.3 | 0.369 |
| COR-L 105 | 0.479 | 0.449 | 0.399 | 0.388 | 0.438 | 0.419 | 0.433 | 0.324 | 0.34 | 0.418 | 0.372 | 0.326 | 0.328 | 0.266 | 0.318 | 0.767 | 0.787 | 0.792 | 0.719 | 0.635 |
| Calu-6 | – | – | – | – | – | – | – | – | – | – | 0.885 | 0.859 | 0.921 | 0.902 | 0.856 | 0.543 | 0.575 | 0.653 | 0.56 | 0.648 |
| ChaGo-K-1 | 0.96 | 0.915 | 1.05 | 0.897 | 0.819 | 0.9 | 0.878 | 1.01 | 0.914 | 0.958 | 0.769 | 0.714 | 0.452 | 0.791 | 0.544 | 0.44 | 0.399 | 0.4 | 0.461 | 0.456 |
| EBC-1 | – | – | – | – | – | – | – | – | – | – | 0.401 | 0.371 | 0.417 | 0.387 | 0.335 | 0.83 | 0.663 | 0.718 | 0.659 | 0.662 |
| EKVX | 0.391 | 0.397 | 0.419 | – | 0.347 | 0.358 | 0.398 | 0.355 | 0.401 | 0.29 | 0.395 | 0.377 | 0.478 | 0.428 | 0.441 | 0.748 | 0.844 | 0.721 | 0.901 | 0.905 |
| EMC-BAC-2 | 0.521 | 0.541 | 0.512 | 0.507 | 0.519 | 0.51 | 0.529 | 0.467 | 0.503 | 0.47 | 0.439 | 0.476 | 0.396 | 0.564 | 0.445 | 0.469 | 0.491 | 0.456 | 0.49 | 0.492 |
| EPLC-272H | 0.315 | 0.338 | 0.289 | – | 0.336 | 0.323 | 0.289 | 0.327 | 0.378 | 0.283 | 0.276 | 0.26 | 0.28 | 0.37 | 0.434 | 0.665 | 0.633 | 0.886 | 0.74 | 0.697 |
| H3255 | 0.351 | 0.329 | 0.331 | 0.289 | 0.322 | 0.326 | 0.293 | 0.299 | 0.317 | 0.304 | 0.396 | 0.472 | 0.51 | 0.44 | 0.5 | 0.586 | 0.546 | 0.611 | 0.629 | 0.622 |
